Earlier results as cited in patent US20250319084A1, “ENDOCRINE THERAPY AND ABEMACICLIB COMBINATION FOR THE ADJUVANT TREATMENT OF NODE-POSITIVE, EARLY STAGE, HORMONE RECEPTOR-POSITIVE, HUMAN EPIDERMAL GROWTH FACTOR RECEPTOR 2-NEGATIVE BREAST CANCER” (Eli Lilly and Company, priority 2017, published 2025).
Read-outs that look alike come from different tables or passages of the source.

Columns and labels:
[1] = tested on: HR+ early breast cancer involving axillary lymph nodes
[2] = tested on: HR+metastatic breast cancer; details: JPBA Phase 1b, continuously dosed single agent, across dose levels, heavily pretreated HR+ metastatic breast cancer refractory to endocrine therapy
[3] = tested on: HR+metastatic breast cancer; details: MONARCH 1 Phase 2, single agent, 200-mg dose twice daily, heavily pretreated HR+ metastatic breast cancer refractory to endocrine therapy
[4] = tested on: early neoadjuvant breast cancer; details: 150 mg twice daily, as monotherapy and in combination with anastrozole
[5] = tested on: human cancer xenografts, including breast cancer; details: multiple murine xenograft models for human cancer
[6] = nonclinical species
[7] = tested on: 46 breast cancer cell lines; details: panel of 46 breast cancer cell lines representing known molecular subgroups

Structure (SMILES) | 4-year disease-free survival ([1]; BIG 1-98, patients with higher Ki67 values (>11%)) [%] | 4-year disease-free survival ([1]; BIG 1-98, patients with low (≤11%) Ki67 levels at baseline) [%] | response rate [2] [%] | response rate [3] [%] | tolerability (HR+mBC; JPBH Phase 1b, combined with standard endocrine therapies) | most common adverse events (HR+mBC; JPBH, abemaciclib plus endocrine therapy, predominantly low-grade severity, appear dose-dependent) | safety profile [4] | reduction of tumor cell proliferation marker (Ki67 index) ([4]; versus anastrozole alone) | tumor growth inhibition [5] | toxicity profile [6] | growth inhibition in vitro (sensitivity by subgroup) [7]
N#Cc1ccc(C(c2ccc(C#N)cc2)n2cncn2)cc1 [letrozole] | 85 | 93 | – | – | – | – | – | – | – | – | –
CCN1CCN(Cc2ccc(Nc3ncc(F)c(-c4cc(F)c5nc(C)n(C(C)C)c5c4)n3)nc2)CC1 [Abemaciclib, [5-(4-ethyl-piperazin-1-ylmethyl)-pyridin-2-yl]-[5-fluoro-4-(7-fluoro-3-isopropyl-2-methyl-3H-benzoimidazol-5-yl)-pyrimidin-2-yl]-amine] | – | – | 33.3 | 19.7 | tolerable | fatigue, nausea, diarrhea, leukopenia, lymphopenia, neutropenia, and anemia | acceptable safety profile | to a significantly greater extent than anastrozole alone | significantly inhibit tumor growth | acceptable toxicity profile | sensitivity to CDK4 and CDK6 inhibition is greater in ER+breast cancers with luminal histology
